Measurements as given in patent US12570661B2, “Isoform-specific aldehyde dehydrogenase inhibitors” (The Board of Trustees of the Leland Stanford Junior …, priority 2020, dated 2026).
Entries after “also recorded” stand apart in the source; their conditions may differ. Like-named read-outs stand apart in the source and are kept apart here.

What was measured:
[1] = test system: SW480 cells (adherent); assay: Cell viability assay, adherent SW480 cultures; format: cell-based, human; conditions: adherent culture, 7 days
Procedure: (§1) SW480 or HCT116 cells were seeded into regular or Matrigel-coated 96-well plates at a density of 1000 cells/well. The cells were cultured in the corresponding adherent or spheroid culture medium (200 μL/well) containing the designated compounds or an equivalent amount of DMSO vehicle. Each culture was maintained for 7 days, and then cell viabilities were measured using a CellTiter-Glo 3D Cell Viability Assay kit (Promega). Briefly, 100 μL of the culture medium was removed from each well and replaced with 100 μL 3D Cell Assay reagent. The cells in each well were next homogenized by vigorous pipetting, and the plate was incubated for 10 min at room temperature to stabilize the chemiluminescent signal. A 150-μL aliquot from each well was then transferred into a white opaque 96-well assay plate (flat-bottom and non-treated; Corning Costar) and luminescence intensities were measured with a Veritas microplate luminometer (Turner BioSystems).

[2] = test system: SW480 cells (spheroid); assay: Matrigel spheroid growth / viability assay, SW480; format: cell-based; conditions: for GI50: read-out: Spheroid SW480 GI50, Matrigel spheroid culture, 7 days
Procedure: To prepare Matrigel-coated culture plates, 96-well and 24-well plates were placed on ice and coated with 25 μL or 300 μL, respectively, of Matrigel matrix (Corning, LDEV-free) that had been thawed overnight at 4° C. The plates were then placed in a 37° C. incubator for 30 min to allow the Matrigel to solidify. SW480 or HCT116 cells were suspended in spheroid culture medium (RPMI-1640 containing 20 ng/mL recombinant human epidermal growth factor (Abcam, ab9697), 20 ng/mL recombinant human fibroblast growth factor (BioVision, 4037), 5 μg/mL heparin (Sigma), 1× N-2 supplement (Thermo Fisher Scientific), 100 U/mL penicillin, and 100 μg/mL streptomycin) and then seeded into the 96-well and 24-well Matrigel-coated plates at densities of 1,000 or 5,000 cells/well and total well volumes of […] or 1 mL, respectively. Compounds were diluted in spheroid culture medium and added to the wells, and the spheroid were grown at 37° C. with 5% CO2 for 7 days.
To quantify spheroid growth at the 7-day endpoint, unstained spheroids were imaged with phase-contrast illumination using a Keyence BZ-X710 microscope. Some cultures were also stained with crystal violet to enable brightfield imaging. Briefly, the Matrigel spheroids cultures were treated with PBS containing 0.5% crystal violet and 5% methanol for 15 min at 37° C. and then gently washed 4×5 min with PBS. Spheroid sizes were quantified with ImageJ (Fiji) software using masks created with the default “Threshold” function and foreground/background adjustments to optimize masking fidelity. The full field of view was then selected for “Analyze Particles” analysis, providing numbered list of each spheroid and its area in the micrograph. In the few cases that two adjacent spheroids were treated as one object by the image processing software, their measurements were manually corrected using the “Freehand Selections” tool. To exclude background and debris from dead cells, spheroids with areas less than 500 μm^2 were excluded from the image analyses.
as §1

[3] = target: T1, ALDH1B1 (Homo sapiens, UniProt P30837); assay: ALDH1B1 enzyme kinetics assay (NADH fluorescence, acetaldehyde substrate); format: biochemical; design: made in house; host or cells: E. coli BL21 (optionally co-expressed with GroEL/GroES); conditions: 1 μg/mL enzyme, 1 mM acetaldehyde, 1 mM NAD+; read-out: ALDH1B1(in vitro) IC50
T1 sequence (P30837 18-517): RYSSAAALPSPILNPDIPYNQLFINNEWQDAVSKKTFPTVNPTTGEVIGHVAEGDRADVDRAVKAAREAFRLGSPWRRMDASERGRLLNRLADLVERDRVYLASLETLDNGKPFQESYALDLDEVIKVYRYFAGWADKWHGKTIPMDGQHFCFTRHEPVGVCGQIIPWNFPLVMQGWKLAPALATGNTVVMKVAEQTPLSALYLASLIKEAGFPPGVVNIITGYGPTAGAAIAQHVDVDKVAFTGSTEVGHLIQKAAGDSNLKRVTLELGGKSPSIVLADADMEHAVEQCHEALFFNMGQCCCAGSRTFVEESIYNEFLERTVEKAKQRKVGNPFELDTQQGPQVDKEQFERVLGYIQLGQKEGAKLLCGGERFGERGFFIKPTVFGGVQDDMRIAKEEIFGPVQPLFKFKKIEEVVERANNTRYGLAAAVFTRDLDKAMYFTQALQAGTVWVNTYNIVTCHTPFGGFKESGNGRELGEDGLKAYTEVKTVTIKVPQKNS
Procedure: Cloning, expression, and purification of human recombinant ALDH1A1, ALDH1A3, ALDH2, ALDH3A1, ALDH3A2, ALDH4A1, ALDH5A1 and ALDH7A1 isozymes were conducted as described previously (Chen, C. H. et al. (2015) Proc. Natl. Acad. Sci. U.S.A. 112, 3074-3079). Human ALDH1A2 (Origene, SC109995) and ALDH1B1 (T. Hurley, Indiana University) plasmids were cloned into the pET-15b expression vector (Novagen, 69661-3) containing an N-terminal hexahistidine tag. The mitochondria-targeting sequence of ALDH1B1 was also removed. For protein expression without chaperones, the pET-15b based plasmids were transformed into competent BL21 E. coli cells, which were subsequently grown in 1 L of Luria-Bertani medium containing 100 μg/mL ampicillin at 37° C. Once the OD600 value reached 0.6, the culture was transferred to 16° C. and 0.5 mM isopropyl β-d-1-thiogalactopyranoside was introduced to induce protein expression overnight. The bacteria were then pelleted by centrifugation (3000×g, 4° C. for 30 rain) and harvested. 40 mL BugBuster Master Mix buffer (MilliporeSigrna) containing a protease inhibitor cocktail (cOmplete; Roche) was added, and the cells were lysed by mechanically rolling the suspension at room temperature for 25 min. The lysate was centrifuged (16000×g, 4° C. for 30 min), and the soluble fraction was collected and mixed with 2 mL of Ni-NTA Superflow resin (Qiagen). After the mixture was avowed to rock at 4° C. for 1 h, it was used to create a 10-mL gravity column, which was sequentially treated with 40 mL of wash buffer 1 (20 mM sodium phosphate, 500 mM NaCl, 1 mM DTT, 20 mM imidazole, 5% glycerol, pH 7.4) and 25 mL of wash buffer 2 (20 mM sodium phosphate, 500 mM NaCl, 1 mM DTT, 40 mM imidazole, 5% glycerol, pH 7.4). The hexahistidine-tagged protein was then recovered by treated the column with 5 mL elution buffer (20 mM sodium phosphate, 500 mM NaCl, 1 mM DTT, 400 mM imidazole, 5% glycerol, pH 7.4) and collecting 500-μL fractions. The protein concentration for each fraction was measured (500 μL elution volume was collected as one fraction and was immediately mixed with 500 μL glycerol. The protein concentration for each fraction was measured (600 nm Protein Assay Reagent; Thermo Fisher Scientific), and protein-containing fractions were diluted with an equal volume of glycerol and stored at −80° C. Samples from each step were also collected for SDS-PAGE gel analysis. For ALDH1B1 protein co-expression with chaperones, pET-15b-ALDH1B1 and GroEL/GroES (Addgene, plasmid pBB541) plasmids were co-transformed into competent BL21 E. coli cells, which were subsequently grown in 1 L of Luria-Bertani medium containing 100 μg/mL ampicillin and 50 μg/mL spectinomycin at 37° C. The hexahistidine-tagged ALDH1B1 protein was then expressed and purified as described above.
To evaluate compound activities against ALDH isoforms, reaction mixtures consisting of enzyme assay buffer (100 mM sodium phosphate, 1 mM MgCl2, pH 8.0) and 0.1% DMSO, 1 mM β-mercaptoethanol, 1 mM NAD^+, and the bacterially expressed protein were prepared in white opaque 96-well assay plates (100 μL/well, flat-bottom and non-treated; Corning Costar). 5 μg/mL ALDH enzyme was used for single-dose (1, 10, 50 μM) compound test, and 1 μg/mL ALDH enzyme was used for IC50s determination. Acetaldehyde was then added to each well to achieve an initial substrate concentration of 1 mM, and the resulting enzymatic activity was measured based on NADH fluorescence. The fluorescence signal was read over the course of 10 min on a SpectraMax M2e microplate reader (340-nm excitation and 460-nm emission; Molecular Devices) operated by SoftMax Pro software. Compound activities were normalized to a DMSO control, and dose-response inhibition curves were fitted with four-parameter non-linear regression using Prism software. […]

[4] = target: T1, ALDH1B1; assay: ALDEFLUOR assay of cellular ALDH1B1 activity in ALDH1B1-transfected ALDH1A3−/− A375 cells; format: cell-based; conditions: for IC50: ALDEFLUOR, ALDH1B1-overexpressing ALDH1A3−/− A375 cells, read-out: ALDH1B1(in cellulo) IC50; for effect on ALDH1B1-dependent ALDEFLUOR signal (cellular ALDH1B1 activity): flow cytometry
Procedure: ALDH1A3^−/− A375 cells were seeded into a 6-well plate at a density of 5×10^5 cells/well and cultured for 24 h. The cells were then transfected with either pCMV6-entry, pCMV6-GFP (Addgene, plasmid 11153), or pCMV-ALDH1B1. After 24 h, the media was replaced and transfection efficiencies were estimated by the EGFP-positive cells in the pCMV-GFP-transfected well. The cells were cultured for another 24 h and their ALDH activities were quantified using the ALDEFLUOR assay. Briefly, the cells were isolated from the plate with trypsin and resuspended in ALDEFLUOR assay buffer (STEMCELL Technologies) at a concentration of 4×10^5 cells/mL. Each ALDEFLUOR assay used 0.5 mL of this cell suspension, and the cells were treated with individual compounds for 15 min at 37° C. and 5% CO2. The cell suspensions were then treated with 2.5 μL ALDEFLUOR reagent and incubated for an additional 30 min at 37° C. and 5% CO2. The cells were then collected by centrifugation (450×g) for 5 min at room temperature, resuspended in 200 μL assay buffer, and analyzed with an LSR II flow cytometer (BD Biosciences) at the Stanford FACS facility.

[5] = HEK-293T cytotoxicity (cell viability) assay; format: cell-based; conditions: human, HEK-293T cells; adherent HEK-293T, 4-5 days, CellTiter-Glo; read-out: HEK293T GI50
Procedure: HEK-293T cells were seeded into a 96-well plate at a density of 5×10^3 cells/well and treated with varying concentrations of selected compounds or an equivalent amount of DMSO vehicle. The cells were cultured for 4-5 days without a media change, and after the DMSO-treated cells approached 100% confluence, the cell viabilities were measured using a CellTiter-Glo 3D Cell Viability Assay kit (Promega) and a Veritas microplate luminometer (Turner BioSystems) as described above.

[6] = test system: NIH-3T3 cells; assay: Seahorse oxygen-consumption-rate assay (NIH3T3); format: cell-based, murine; conditions: Mus musculus

Work on `COc1ccccc1C1=CN(c2ccc(-c3ccccc3)cc2)C2=NCCCN12` [STL5-T-0001] yielded a GI50 [1] of 1900 nM, a GI50 [2] of 1500 nM and an IC50 [3] of 98 nM.
`COc1ccccc1N1C=C(c2ccc(-c3ccccc3)cc2)N2CC(C)(C)CN=C21` [HPI-279] gave an IC50 [4] of 110 nM and an IC50 [3] of 82 nM.
Compound `CCOc1ccc(C2=CN(c3ccc(-c4ccccc4OC)cc3)C3=NCCCN23)c(OC)c1` [Guanidine 65] has a GI50 ([1]; Homo sapiens, SW480, 168 h) of 2900 nM, a GI50 ([2]; Homo sapiens, SW480, 168 h) of 1600 nM and an IC50 [3] of 130 nM.
With `COc1cc(Cl)ccc1C1=CN(c2ccc(-c3ccccc3OC)cc2)C2=NCCCN12` [STL5-T-0057] the GI50 [5] was 1700 nM, the GI50 ([1]; Homo sapiens, SW480, 168 h) was 2700 nM and the GI50 ([2]; Homo sapiens, SW480, 168 h) was 440 nM. It also gave an IC50 [3] of 30 nM.
In the case of `CCOc1ccc(N2C=C(c3ccc(-c4ccccc4)cc3)N3CCCCN=C32)cc1` [Guanidine 73], the IC50 [4] is reported as 6700 nM, the IC50 [6] is reported as 2400 nM and the IC50 [3] is reported as 1900 nM.
With `COc1ccccc1-c1ccc(C2=CN(c3ccccc3OC)C3=NCCCCN23)cc1` [Compound 72] the “effect on ALDH1B1-dependent ALDEFLUOR signal (cellular ALDH1B1 activity)” value [4] was “inhibit cellular ALDH1B1 activity” and the “efficacy on SW480 spheroid growth in combination with 5-FU” value ([2]; combination with 5-FU) was “closely matched the product of their individual activities”.
In the case of `CCc1ccccc1C1=CN(c2ccc(-c3ccccc3)cc2)C2=NCCCCN12` [STL5-T-0027], the GI50 [5] is reported as 4300 nM and the IC50 [3] is reported as 44 nM.
With `CCN(CC)c1ccc(C=O)cc1` [DEAB, N-diethylaminobenzaldehyde, reference compound] the “effect on ALDH1B1-dependent ALDEFLUOR signal (cellular ALDH1B1 activity)” value [4] was “inhibited; also recorded: abrogated”.
